Test results taken from patent US20040266718A1, “Inhibition of specific histone deacetylase isoforms” (priority 2001, published 2004).

Legend:
[1] = tested on: acetylated histone H-4 in T24 human bladder cancer cells; assay: inhibition of HDAC activity in whole cells (acetylated histone H-4 Western blot); type: cell-based; conditions: 16 hours
Method: T24 human bladder cancer cells (ATCC, Manassas, Va.) growing in culture were incubated with test compounds for 16 hours. Histones were extracted from the cells by standard procedures (see e.g. Yoshida et al., supra) after the culture period. Twenty μg total core histone protein was loaded onto SDS/PAGE and transferred to nitrocellulose membranes, which were then reacted with polyclonal antibody specific for acetylated histone H-4 (Upstate Biotech Inc., Lake Placid, […].). Horse Radish Peroxidase conjugated secondary antibody was used at a dilution of 1:5000 to detect primary antibody binding. The secondary antibody binding was visualized by use of the Enhanced chemiluminescence (ECL) detection kit (Amersham-Pharmacia Biotech., Inc., Piscataway, N.J.). After exposure to film, acetylated H-4 signal was quantitated by densitometry.

human HDAC-1 = molecular target: T1, human HDAC-1 (Homo sapiens, UniProt Q13547); assay: histone deacetylase enzyme assay, HDAC-1; type: biochemical; conditions: recombinant human enzyme, [3H]-acetylated histone substrate, 10 minutes; read-out: Enzyme IC50 (μM) HDAC1
T1 construct: made in house; host or cells: insect cells (baculovirus expression system)
T1 sequence (Q13547 whole entry): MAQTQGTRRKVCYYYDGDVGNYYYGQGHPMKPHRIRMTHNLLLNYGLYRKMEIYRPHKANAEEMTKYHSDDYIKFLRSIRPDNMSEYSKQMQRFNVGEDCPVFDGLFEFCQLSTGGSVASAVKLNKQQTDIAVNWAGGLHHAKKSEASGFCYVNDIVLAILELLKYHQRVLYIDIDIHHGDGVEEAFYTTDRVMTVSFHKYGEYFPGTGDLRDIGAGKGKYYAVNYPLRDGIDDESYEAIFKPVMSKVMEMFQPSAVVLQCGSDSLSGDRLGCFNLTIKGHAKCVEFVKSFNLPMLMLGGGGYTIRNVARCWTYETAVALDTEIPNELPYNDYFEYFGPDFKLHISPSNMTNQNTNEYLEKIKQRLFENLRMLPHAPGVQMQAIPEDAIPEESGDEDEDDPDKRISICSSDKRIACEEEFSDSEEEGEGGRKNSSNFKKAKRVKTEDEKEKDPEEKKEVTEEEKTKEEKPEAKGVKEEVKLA
Method: (§1) The other HDAC isotypes, HDAC-3 and HDAC-4, were purified directly on an anti-Flag affinity column.
(§2) For the deacetylase assay, 20,000 cpm of an [^3H]-metabolically-labeled acetylated histone was used as a substrate. Histones were incubated with cloned recombinant human HDAC enzymes at 37° C. […] All assay conditions were pre-determined to be certain that each reaction was linear. Reactions were stopped by adding acetic acid (0.04 M, final concentration) and HCl (250 mM, final concentration). The mixture was extracted with ethyl acetate, and the released [^3H]-acetic acid was quantified by liquid scintillation counting. For the inhibition studies, HDAC enzyme was preincubated with test compounds for 30 minutes at 4° C. prior to the start of the enzymatic assay. IC50 values for HDAC enzyme inhibitors were identified with dose response curves for each individual compound and, thereby, obtaining a value for the concentration of inhibitor that produced fifty percent of the maximal inhibition.

human HDAC-4 = molecular target: T2, human HDAC-4 (Homo sapiens, UniProt P56524); assay: histone deacetylase enzyme assay, HDAC-4; type: biochemical; conditions: recombinant human enzyme, [3H]-acetylated histone substrate, 2 hours; read-out: Enzyme IC50 (μM) HDAC4
T2 construct: Flag; made in house
T2 sequence (P56524 whole entry): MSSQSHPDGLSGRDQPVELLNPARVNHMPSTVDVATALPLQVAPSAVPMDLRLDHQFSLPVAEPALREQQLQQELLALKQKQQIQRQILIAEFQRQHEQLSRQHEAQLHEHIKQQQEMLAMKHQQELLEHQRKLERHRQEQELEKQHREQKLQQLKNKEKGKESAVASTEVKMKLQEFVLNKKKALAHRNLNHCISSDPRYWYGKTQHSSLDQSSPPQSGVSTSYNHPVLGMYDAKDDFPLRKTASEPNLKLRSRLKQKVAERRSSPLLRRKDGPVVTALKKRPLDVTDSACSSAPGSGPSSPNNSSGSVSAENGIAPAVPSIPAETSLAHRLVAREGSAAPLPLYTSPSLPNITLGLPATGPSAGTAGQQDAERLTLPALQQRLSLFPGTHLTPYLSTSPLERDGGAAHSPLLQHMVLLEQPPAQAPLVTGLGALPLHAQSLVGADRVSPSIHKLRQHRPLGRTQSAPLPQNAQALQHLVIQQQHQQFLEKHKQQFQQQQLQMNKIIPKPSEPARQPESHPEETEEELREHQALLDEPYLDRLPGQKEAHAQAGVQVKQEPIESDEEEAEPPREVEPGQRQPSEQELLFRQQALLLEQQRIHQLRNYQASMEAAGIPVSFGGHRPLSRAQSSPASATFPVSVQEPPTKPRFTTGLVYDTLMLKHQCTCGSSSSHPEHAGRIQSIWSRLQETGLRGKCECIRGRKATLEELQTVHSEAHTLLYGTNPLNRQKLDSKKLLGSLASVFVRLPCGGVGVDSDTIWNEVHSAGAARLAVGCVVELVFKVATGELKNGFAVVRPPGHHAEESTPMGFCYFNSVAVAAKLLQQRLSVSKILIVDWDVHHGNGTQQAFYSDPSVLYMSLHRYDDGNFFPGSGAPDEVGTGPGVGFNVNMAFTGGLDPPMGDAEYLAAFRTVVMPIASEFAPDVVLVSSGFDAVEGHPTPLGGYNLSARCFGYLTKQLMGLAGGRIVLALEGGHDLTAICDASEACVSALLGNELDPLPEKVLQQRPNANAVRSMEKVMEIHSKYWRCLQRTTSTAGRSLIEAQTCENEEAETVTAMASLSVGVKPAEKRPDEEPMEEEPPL
Method: Flag-tagged human HDAC-4 enzyme was produced in human embronic kidney 293 cells after transformation by the calcium phosphate precipitation method. Briefly, 293 cells were cultured in Dulbecco's Modified Eagle Medium (DMEM) containing 10% fetal bovine serum and antibiotics. Plasmid DNA encoding Flag-tagged human HDAC-4 was precipitated by ethanol and resuspend in sterile water. DNA-calcium precipitates, formed by mixing DNA, calcium choloride and 2× HEPES-buffered saline solution, were left on 293 cells for 12-16 hours. Cells were return to serum-contained. DMEM medium and harvested at 48 hour post transfection for purification of Flag-tagged HDAC-4 enzyme.
as §1
For the deacetylase assay, 20,000 cpm of an [^3H]-metabolically-labeled acetylated histone was used as a substrate. Histones were incubated with cloned recombinant human HDAC enzymes at 37° C. […] All assay conditions were pre-determined to be certain that each reaction was linear. Reactions were stopped by adding acetic acid (0.04 M, final concentration) and HCl (250 mM, final concentration). The mixture was extracted with ethyl acetate, and the released [^3H]-acetic acid was quantified by liquid scintillation counting. […]

[2] = tested on: human colon cancer HCT116 cells; assay: MTT assay of cell proliferation; type: cell-based; conditions: HCT-116, 72 hours
Method: Two thousand (2,000) human colon cancer HCT116 cells (ATCC, Manassas, Va. were used in an MTT (3-[4,5-dimethylthiazol-2-yl]-2,5 diphenyl tetrazolium bromide) assay to quantitatively determine cell proliferation and cytotoxicity. Typically, HCT116 cells were plated into each well of the 96-well tissue culture plate and left overnight to attach to the plate. Compounds at various concentrations were added into the culture media (final DMSO concentration 1%) and incubated for 72 hours. MTT solution (obtained from Sigma as powder) was added and incubated with the cells for 4 hours at 37° C. in incubator with 5% CO2. During the incubation, viable cells convert MTT to a water-insoluble formazan dye. Solubilizing buffer (50% N,N-dimethylformamide, 20% SDS, pH 4.7) was added to cells and incubated for overnight at 37C in incubator with 5% CO2. Solubilized dye was quantitated by calorimetric reading at […] using a reference of […]. Optical density values were converted to cell number values by comparison to a standard growth curve for each cell line.

A549 [3] = assay: tumor growth in mouse model, lung; type: in vivo, BALB/c nude mice; conditions: 50 mg/kg body weight/day, ip
Method: (§3) Female BALB/c nude mice were obtained from Charles River Laboratories (Charles River, N.Y.) and used at age 8-10 weeks. Human prostate tumor cells (DU145, 2×10^6) or human colon cancer cells (HCT116; 2×10^6) or […] A549 2×106 were injected subcutaneously in the animal's flank and allowed to form solid tumors. Tumor fragments were serially passaged a minimum of three times, then approximately 30 mg tumor fragments were implanted subcutaneously through a small surgical incision under general anaesthesia. Small molecule inhibitor administration by intraperotineal or oral administration was initiated when the tumors reached a volume of 100 mm^3. For intraperotineal administration, small molecule inhibitors of HDAC (40-50 mg/kg body weight/day) were dissolved in 100% DMSO and administered daily intraperitoneally by injection. For oral administration, small molecule inhibitors of HDAC (40-50 mg/kg body weight/days) were dissolved in a solution containing 65% polyethylene glycol 400 (PEG 400 (Sigma-Aldridge, Mississauga, Ontario, CA, Catalogue No. P-3265), 5% ethanol, and 30% water. Tumor volumes were monitored twice weekly up to 20 days. Each experimental group contained at least 6-8 animals. Percentage inhibition was calculated using volume of tumor from vehicle-treated mice as controls.

[4] = tested on: Human cancer HCT116 cells; assay: cell cycle arrest by FACS; type: cell-based; conditions: HCT116, 16 hours; concentration to induce a (G2+M)/S ratio of 2.5
Method: Human cancer HCT116 cells were plated at 2×10^5 per 10-cm dish and were left to attach to the dish overnight in the incubator. Cells were treated with small molecule inhibitors at various concentrations (1 uM and 10 uM, typically, dissolved in DMSO) for 16 hours. Cells were harvested by trypsinization and washed once in 1×PBS (phosphate buffered saline). The cells were resuspended in about 200 ul 1×PBS and were fixed by slowly adding 1 ml 70% ethanol at −20° C. and were left at least overnight at −20° C. Fixed cells were centrifuged at low speed (1,000 rpm) for 5 minutes, and the cell pellets were washed again with 1×PBS. Nucleic acids from fixed cells were incubated in a staining solution (0.1% (w/v) glucose in 1×PBS containing 50 ug/ml propidium iodide) (Sigma-Aldridge, Mississauga, Ontario, CA) and RNase A (final 100 units/ml, (Sigma-Aldridge, Mississauga, Ontario, CA) for at least 30 minutes in the dark at 25° C. DNA content was measured by using a fluorescence-activated cell sorter (FACS) machine. Treatment of cells with all HDAC small molecule inhibitors in Table 2 results in a significant accumulation of cancer cell in G2/M phase of the cell cycle and concomitantly reduce the accumulation of cancer cells in S phase of the cell cycle. The ratio of cells in G2/M phase vs. cells in the S. phase was determined. […]

[5] = tested on: human colon cancer cells (HCT116); assay: tumor growth in mouse model, colon; type: in vivo, BALB/c nude mice; conditions: 40 mg/kg body weight/day, po
Method: as §3

human HDAC-6 = molecular target: T3, human HDAC-6 (Homo sapiens, UniProt Q9UBN7); assay: histone deacetylase enzyme assay, HDAC-6; type: biochemical; conditions: recombinant human enzyme, [3H]-acetylated histone substrate, 2 hours; read-out: Enzyme IC50 (μM) HDAC6
T3 construct: made in house; host or cells: insect cells (baculovirus expression system)
T3 sequence (Q9UBN7 whole entry): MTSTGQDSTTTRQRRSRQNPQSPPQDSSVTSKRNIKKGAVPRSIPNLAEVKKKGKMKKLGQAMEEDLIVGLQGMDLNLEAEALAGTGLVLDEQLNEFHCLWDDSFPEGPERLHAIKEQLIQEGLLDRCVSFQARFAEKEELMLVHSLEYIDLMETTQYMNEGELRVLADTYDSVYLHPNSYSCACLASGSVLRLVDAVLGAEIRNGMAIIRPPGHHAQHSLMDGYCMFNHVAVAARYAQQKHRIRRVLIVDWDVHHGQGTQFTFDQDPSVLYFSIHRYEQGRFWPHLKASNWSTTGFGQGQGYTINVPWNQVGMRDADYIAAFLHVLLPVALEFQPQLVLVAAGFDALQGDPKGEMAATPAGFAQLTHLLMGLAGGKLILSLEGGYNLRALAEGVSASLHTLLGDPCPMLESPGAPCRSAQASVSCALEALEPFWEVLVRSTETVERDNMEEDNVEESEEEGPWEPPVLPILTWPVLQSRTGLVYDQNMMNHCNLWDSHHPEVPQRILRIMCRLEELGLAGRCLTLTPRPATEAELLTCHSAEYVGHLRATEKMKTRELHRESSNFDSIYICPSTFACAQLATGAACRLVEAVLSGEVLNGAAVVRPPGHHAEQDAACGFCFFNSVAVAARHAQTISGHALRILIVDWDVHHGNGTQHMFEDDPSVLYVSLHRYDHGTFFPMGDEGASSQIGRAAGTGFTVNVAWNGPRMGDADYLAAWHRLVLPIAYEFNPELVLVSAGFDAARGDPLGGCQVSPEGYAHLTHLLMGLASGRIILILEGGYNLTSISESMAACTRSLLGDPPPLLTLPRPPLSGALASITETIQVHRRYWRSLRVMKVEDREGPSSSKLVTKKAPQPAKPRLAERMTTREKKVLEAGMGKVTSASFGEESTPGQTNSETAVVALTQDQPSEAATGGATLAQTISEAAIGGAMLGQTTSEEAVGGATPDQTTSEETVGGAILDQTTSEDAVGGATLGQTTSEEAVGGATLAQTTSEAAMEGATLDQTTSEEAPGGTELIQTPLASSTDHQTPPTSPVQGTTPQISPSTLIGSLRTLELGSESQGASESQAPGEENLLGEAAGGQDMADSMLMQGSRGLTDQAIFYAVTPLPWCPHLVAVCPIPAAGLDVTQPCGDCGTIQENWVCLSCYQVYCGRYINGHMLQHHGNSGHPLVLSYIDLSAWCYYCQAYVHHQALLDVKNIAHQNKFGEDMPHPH
Method: as §1, §2

human HDAC-3 = molecular target: T4, human HDAC-3 (Homo sapiens, UniProt O15379); assay: histone deacetylase enzyme assay, HDAC-3; type: biochemical; conditions: recombinant human enzyme, [3H]-acetylated histone substrate, 2 hours; read-out: Enzyme IC50 (μM) HDAC3
T4 construct: made in house; host or cells: insect cells (baculovirus expression system)
T4 sequence (O15379 whole entry): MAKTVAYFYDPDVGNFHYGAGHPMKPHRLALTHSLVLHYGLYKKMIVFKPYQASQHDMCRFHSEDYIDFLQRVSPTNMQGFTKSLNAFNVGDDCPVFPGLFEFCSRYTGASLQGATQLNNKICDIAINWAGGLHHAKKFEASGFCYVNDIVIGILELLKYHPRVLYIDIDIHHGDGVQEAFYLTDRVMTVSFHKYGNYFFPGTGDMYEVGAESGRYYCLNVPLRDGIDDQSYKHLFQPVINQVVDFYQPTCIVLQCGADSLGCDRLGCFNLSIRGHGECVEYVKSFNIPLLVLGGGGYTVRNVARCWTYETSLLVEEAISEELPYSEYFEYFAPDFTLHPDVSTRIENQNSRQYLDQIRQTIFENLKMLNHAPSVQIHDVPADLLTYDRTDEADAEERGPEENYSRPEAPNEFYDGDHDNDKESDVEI
Method: as §1, §2

[6] = tested on: GADD45 mRNA expression in A549 cells; assay: RNase protection assay, GADD45 in A549; type: cell-based, human; conditions: TSA vs lipofectin, 250 ng/ml, 16 hours
Method: (§6) As a control, A549 cells were treated by lipofectin with or without TSA (250 ng/ml) treatment for 16 hours. These RNase protection assays were done according to the following procedure. Total RNA from cells was prepared using “RNeasy miniprep kit” from QIAGEN following the manufacturer's manual. Labeled probes used in the protection assays were synthesized using “hStress-1 multiple-probe template sets” from Pharmingen (San Diego, Calif., U.S.A.) according to the manufacturer's instructions. Protection procedures were performed using “RPA II™ Ribonuclease Protection Assay Kit” from Ambion, (Austin, Tex.) following the manufacturer's instructions. Quantitation of the bands from autoradiograms was done by using Cyclone™ Phosphor System (Packard Instruments Co. Inc., Meriden, Conn.).

A549 [7] = assay: apoptosis, Cell Death Detection ELISA, A549; type: cell-based, human; conditions: 100 ng/ml
Method: (§4) In order to determine the effect of HDAC OSDNs on cell growth and cell death through apoptosis, A549 or T24 cells, MDAmb231 cells, and HMEC cells (ATCC, Manassas, Va.) were treated with HDAC OSDNs as previously described.
(§5) For the apoptosis study, cells were analyzed using the Cell Death Detection ELISA^Plus kit (Roche Diagnostic GmBH, Mannheim, Germany) according to the manufacturer's directions. Typically, 10,000 cells were plated in 96-well tissue culture dishes for 2 hours before harvest and lysis. Each sample was analyzed in duplicate. ELISA reading was done using a MR700 plate reader (DYNEX Technology, Ashford, Middlesex, England) at 410 nm. The reference was set at 490 nm.

MDAmb231 = assay: apoptosis, Cell Death Detection ELISA, MDAmb231; type: cell-based, human; conditions: 100 ng/ml
Method: as §4, §5

T24 = assay: apoptosis, Cell Death Detection ELISA, T24; type: cell-based, human; conditions: 100 ng/ml
Method: as §4, §5

HMEC = assay: apoptosis, Cell Death Detection ELISA, HMEC; type: cell-based, human; conditions: 100 ng/ml, normal cells
Method: as §4, §5

[8] = tested on: p21 mRNA expression in A549 cells; assay: RNase protection assay, p21 in A549; type: cell-based, human; conditions: TSA vs lipofectin, 250 ng/ml, 16 hours
Method: as §6

[9] = tested on: Bax mRNA expression in A549 cells; assay: RNase protection assay, Bax in A549; type: cell-based, human; conditions: TSA vs lipofectin, 250 ng/ml, 16 hours
Method: as §6

| SMILES | H4-Ac [1] [µM] | IC50 (human HDAC-1) [µM] | IC50 (human HDAC-4) [µM] | EC50 [2] [µM] | % inhibitor of tumor formation in vivo, lung (A549 [3]) [%] | Cell Cycle Arrest EC [4] [µM] | % inhibitor of tumor formation in vivo, colon [5] [%] | IC50 (human HDAC-6) [µM] | IC50 (human HDAC-3) [µM] | fold induction of transcription, GADD45, A549 [6] [fold] | Apoptosis After 48 Hour Treatment A549 (A549 [7]) | Apoptosis After 48 Hour Treatment MDAmb231 (MDAmb231) | Apoptosis After 48 Hour Treatment T24 (T24) | Apoptosis After 48 Hour Treatment HMEC (HMEC) | fold induction of transcription, p21, A549 [8] [fold] | fold induction of transcription, Bax, A549 [9] [fold] |
| --- | --- | --- | --- | --- | --- | --- | --- | --- | --- | --- | --- | --- | --- | --- | --- | --- |
| Nc1ccccc1NC(=O)/C=C/C#Cc1cccc(NS(=O)(=O)c2ccccc2)c1 [Compound 2] | 5 | 3 | 35 | 4 | 54 | 8 | 53 | > 30 | 30 | – | – | – | – | – | – | – |
| CC(/C=C/C(=O)NO)=C\[C@@H](C)C(=O)c1ccc(N(C)C)cc1 [TSA, (R)-Trichostatin A, reference compound] | – | – | – | – | – | – | – | – | – | 0.6 | ++ (3-5X fold) | ++ (3-5X fold) | ++ (3-5X fold) | + (2-3X fold) | 2.8 | 0.8 |
